# Results from article PMC3871529, “At a Supra-Physiological Concentration, Human Sexual Hormones Act as Quorum-Sensing Inhibitors” (PLoS ONE, 2013).
# Where two headings read alike, the source gives them in different places.
# How the values were obtained:
# [1] = system: Agrobacterium biosensor cells; experiment: Minimal inhibitory concentration (MIC); format: cell-based, Agrobacterium tumefaciens; conditions: 10^5 CFU/ml, 36 h at 30°C
# Method: Aside from the effect of QSI on QS regulation, the toxicity of these compounds was tested on bacterial cells by measuring two parameters: the minimal inhibitory concentration (MIC) and minimal bactericidal concentration (MBC). MIC, which is the lowest concentration of QSI (µg/ml) inhibiting any visible culture after 36 h of incubation at 30°C, was estimated by culturing 10^5 CFU/ml of the Agrobacterium biosensor cells in the presence of different concentrations of the QSI. MBC, which is the lowest concentration of QSI (µg/ml) that results in a 99.9% reduction of the initial bacterial population (10^5 CFU/ml) after 36 h of incubation at 30°C in the presence of different concentrations of QSI, was estimated by plating 100 µL of the Agrobacterium cultures on agar LBm plates. After an incubation of 48 h at 30°C, CFU were counted and the MBC values were calculated.
# [2] = system: QS-regulated genes lasI, lasR, lasB, rhlI, rhlR, rhlA in P. aeruginosa PAO1; experiment: QS-regulated gene expression, lacZ transcriptional fusions in PAO1; format: cell-based, Pseudomonas aeruginosa; conditions: for expression of six QS-regulated genes (lasI, lasR, lasB, rhlI, rhlR, rhlA): QSI at 0.5 mg/ml, 18 hours at 37°C, β-galactosidase; for inhibition of expression of the regulators lasR and rhlR (rank) / impact on rhlI expression relative to naringenin, estradiol and estrone: QSIs at 0.5 mg/ml; for impact on rhlI expression relative to naringenin, estradiol and estrone: naringenin at 1 mg/ml
# Method: Figure 6 QSIs modulated QS-regulated genes in P. aeruginosa. The β-galactosidase (b-Gal) activity in Miller unit (MU) of the transcriptional fusions lasI-lacZ (A), lasR-lacZ (B), lasB-lacZ (C), rhlI-lacZ (D), rhlR-lacZ (E), rhlA-lacZ (F), and aecA-lacZ(G) were measured in the presence of estradiol, estrone, estriol, hordenine at 0.5 mg/ml, and naringenin at 1 mg/ml as a positive control and DMSO as a negative control. The statistical significance of each test (n = 5 and three biological replicates) was evaluated by Student's t test (i.e. each test was compared with the DMSO condition). Asterisks indicate statistically different data (p value of ≤0.01).
# QS gene transcription in P. aeruginosa PAO1 was monitored using PAO1 strains carrying various gene promoters fused to a lacZ reporter gene, as described in Vandeputte et al., 2010 and Table 1. PAO1 reporter strains were prepared according to Vandeputte et al.. Briefly, 18-hours-old liquid cultures (50 µl) were diluted in order to obtain a starting OD600 nm comprised between 0.02 and 0.03 in fresh LB medium supplemented with 50 mM MOPS pH 7.0 (1 ml), carbenicillin (300 µg/ml) and 10 µl of the QSIs to be tested (OD were measured using a SpectraMax M2 device from Molecular Devices). Test and control QSIs were diluted in 100% DMSO (resulting after addition to the growth medium in a 1% final concentration of DMSO). Cultures were incubated for 18 hours at 37°C with agitation. After incubation, cell densities were assessed spectrophotometrically (OD600 nm) and β-galactosidase assays were performed using the substrate o-nitrophenyl-β-D-galactopyranoside as described previously, [29]. Promoterless-lacZ fusions were used as controls. AHLs were quantified as described in Vandeputte et al.. All tests were performed in quintuplicates and three biological repetitions. The statistical significance of each test was evaluated by conducting Student's t tests and two-way ANOVA combined with the Tukey post-analysis test using the GraphPad Prism software and p values≤0.01 were considered significant.
# RhlR = target: T1, RhlR (Pseudomonas aeruginosa, UniProt P54292); experiment: E. coli bioindicator expressing RhlR (pAL101, rhlI::luxCDABE luminescence); format: cell-based; conditions: C4-HSL 10 µM; QSIs at 0.1 mg/ml, naringenin and naringin at 0.5 mg/ml
# T1 construct: expressed in transfected cells; host or cells: Escherichia coli JLD271 carrying pAL101 (pSB401-derivative, rhlR+ rhlI::luxCDABE)
# Method: We determined whether the AHL-binding transcriptional factors LasR and RhlR were impaired in their capacity to activate expression of the QS-regulated genes in the presence of various QSIs. This was achieved by using two E. coli bioindicator strains expressing either LasR or RhlR proteins and harboring an appropriate reporter lux operon for measuring their transcriptional activity in the presence of OC12-HSL at 100 µM and C4-HSL at 10 µM, respectively. Adding C4-HSL to the pAL101-bioindicator or OC12-HSL to the pAL105-bioindicator induced the expression of the reporter lux operon and the consequent production of luminescence. In contrast, only background levels of luminescence were detected in control strains harboring the plasmids pAL102 or pAL106, which lacks the rhlR or lasR gene, respectively.
# Figure 7 QSIs modulated activity of the AHL-sensors in P. aeruginosa. Luminescence of the reporting operon lux, expressed in relative light units (RLU/OD600), was measured in E. coli bioindicator strains harboring the LasR (A) and RhlR (B) AHL-sensing systems of P. aeruginosa in the presence of […]. The QSIs estradiol, estrone, estriol and hordenine were added at 0.1 mg/ml, while naringenin and naringin, added at 0.5 mg/ml, were used as QSI-reference and non-QSI reference, respectively. Each test (n = 6) was compared with the DMSO-condition using Student's t test. Asterisks indicate statistically different data (p value of ≤0.01).
# Escherichia coli JLD271 biosensor strains harboring LasR- and RhlR-based plasmids pAL105 and pAL101 and control plasmids pAL106 (LasR^-) and pAL102 (RhlR^−) (Table 1) were prepared according to Vandeputte et al.. Briefly, these strains were grown in LB medium supplemented with tetracycline (10 µg/ml) and chloramphenicol (25 µg/ml) for 24 h. Then 50-µl portions of the cultures were subcultured in 1 ml of LB medium (the starting OD600 ranged between 0.02 and 0.025 corresponding to 5.10^6 CFU) supplemented with 10 µl of DMSO (1% [vol/vol] final), 10 µl of naringenin or naringin dissolved in DMSO (2 mM, final concentration), or 10 µl of the molecule to be tested. To induce the expression of the lux operon, 0, 1, 10 or […] of C4-HSL was added to pAL101 and pAL102, while OC12-HSL was added to pAL105 and pAL106. After incubation for 2 h at 37°C with agitation (175 rpm), 200 µl of culture was transferred to 96-well OptiPlate-96 F plates from Perkin-Elmer, and the luminescence of each sample was measured by using a TopCount NXT device from Perkin-Elmer. The LasR(pAL106) and RhlR(pAL102) biosensors were used for background subtraction, and the OD600 values were measured to account for the differences in cell density. All experiments were performed in six replicates. The statistical significance of each test was evaluated by conducting Student's t tests using the GraphPad Prism software, and p values ≤0.05 were considered significant. Naringenin (4′,5,7-trihydroxyflavanone), naringin (4′,5,7-trihydroxyflavanone 7-rhamnoglucoside), the AHLs OC12-HSL and C4-HSL were purchased from Sigma-Aldrich and dissolved freshly in 100% DMSO before use. Tested QSIs were dissolved in 100% DMSO before use.
# T1 sequence (P54292 whole entry): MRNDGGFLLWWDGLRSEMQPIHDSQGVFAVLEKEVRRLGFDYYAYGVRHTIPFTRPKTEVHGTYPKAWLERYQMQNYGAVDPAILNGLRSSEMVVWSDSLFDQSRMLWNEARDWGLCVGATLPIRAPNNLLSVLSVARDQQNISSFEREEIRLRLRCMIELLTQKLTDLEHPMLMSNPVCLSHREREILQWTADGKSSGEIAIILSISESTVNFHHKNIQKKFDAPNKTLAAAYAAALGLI
Molecule,MIC [1],"expression of six QS-regulated genes (lasI, lasR, lasB, rhlI, rhlR, rhlA) [2]",effect on RhlR functionality (lux luminescence) (RhlR),"MIC ([1]; Agrobacterium, read-out: MIC)",inhibition of expression of the regulators lasR and rhlR (rank) [2],"impact on rhlI expression relative to naringenin, estradiol and estrone [2]"
"3-Hydroxy-13-methyl-6,7,8,9,11,12,13,14,15,17-decahydro-cyclopenta[a] phenanthren-16-one [Compound 729, reference compound]",>100 µg/mL,decreased,significant impact,–,–,–
"CN(C)CCc1ccc(O)cc1 [Compound 3499, hordenine]",–,decreased,significant impact,> 100 µg/mL,the most,lower impact
"C[C@]12CC[C@@H]3c4ccc(O)cc4CC[C@H]3[C@@H]1C[C@@H](O)[C@@H]2O [Estriol, estriol]",–,decreased,significant impact,> 100 µg/mL,the least,lower impact
